# According to patent US20250154154A1 (Relay Binney Street, 2nd Floor, priority 2020, published 2025):
# Biological target: SRC (Homo sapiens, UniProt P12931)
# Experiment: SRC Biochemical Assay Protocol (microfluidic mobility shift assay, FLPeptide4 substrate)
# Protocol: SRC Biochemical Assay Protocol
# Src biochemical kinase activity was measured using a surrogate fluorescent peptide substrate [FLPeptide4; 5-FAM-EGIYGVLFKKK-CONH2 (PerkinElmer Cat. No. 760348)] with a microfluidic mobility shift assay. Reactions were performed in 384-well flat bottom polystyrene microplates (Corning Cat. No. 3570) at a final volume of 20 μL in 50 mM HEPES pH 7.4, 1 mM EGTA, 10 mM MgCl2, 0.01% Brij-35, 2 mM DTT, 0.05% BSA, 1% DMSO. Inhibition experiments were performed with compounds of the invention varying from 0.0017-100 μM with 0.26 nM SRC, 1.5 μM FLPeptide4, and 50 μM ATP. Specifically, 15 μl 1.3× mixtures of SRC+FLPeptide4+compounds were preincubated for 30 minutes at room temperature followed by addition of 5 μL 4×ATP. Reactions were carried out for 90 minutes then quenched with 40 μl 500 mM EDTA. Phosphorylated peptide product was measured with a mobility shift assay using a LabChip® EZ Reader system (PerkinElmer Cat. No. 122919). Inhibition ratios were calculated relative to neutral controls and IC50 values were obtained from dose response data fitted to a 4-parameter logistic model.
# Sequence of SRC (P12931 whole entry, species assumed): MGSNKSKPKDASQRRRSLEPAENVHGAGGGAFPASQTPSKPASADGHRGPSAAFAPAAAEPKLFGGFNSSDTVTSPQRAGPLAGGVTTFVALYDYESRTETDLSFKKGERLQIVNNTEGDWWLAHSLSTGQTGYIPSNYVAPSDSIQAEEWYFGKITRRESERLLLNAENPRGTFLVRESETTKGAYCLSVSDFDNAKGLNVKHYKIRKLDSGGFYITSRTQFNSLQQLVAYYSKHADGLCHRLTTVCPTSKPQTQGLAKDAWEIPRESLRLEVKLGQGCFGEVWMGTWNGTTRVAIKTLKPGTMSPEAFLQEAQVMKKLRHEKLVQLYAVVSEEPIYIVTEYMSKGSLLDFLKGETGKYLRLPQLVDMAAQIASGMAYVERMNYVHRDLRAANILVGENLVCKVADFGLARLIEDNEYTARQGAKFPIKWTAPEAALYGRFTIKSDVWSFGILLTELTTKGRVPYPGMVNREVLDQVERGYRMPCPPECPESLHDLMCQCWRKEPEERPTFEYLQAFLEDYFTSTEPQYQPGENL
row,Compound,IC50 [nM]
1,C=CC(=O)N1CCC(C#Cc2c(-c3ccc(Oc4ncccn4)cc3)c3c(N)ncnc3n2C(C)C)CC1 [Example I-15],10 to 1000
2,"CC(C(=O)O)N1CCC(C#Cc2c(-c3ccc(Oc4ccccc4)cc3)c3c(N)ncnc3n2C(C)C)CC1 (stereo not drawn) [II-149, 2-(4-((4-amino-7-isopropyl-5-(4-phenoxyphenyl)-7H-pyrrolo[2,3-d]pyrimidin-6-yl)ethynyl)piperidin-1-yl)propanoic acid]",≤ 10
3,C=CC(=O)N1CCC(C#Cc2c(-c3ccc(Oc4ccccc4)cc3)c3c(N)ncnc3n2CCCCN(C)C)C1 (stereo not drawn) [III-20],10 to 1000
4,"Nc1ncnc2c1c(-c1ccc(Oc3ccccc3)cc1)c(C#CC1CCNCC1)n2C1CCOC1 (stereo not drawn) [II-155, 5-(4-phenoxyphenyl)-6-(piperidin-4-ylethynyl)-7-(tetrahydrofuran-3-yl)-7H-pyrrolo[2,3-d]pyrimidin-4-amine]",≤ 10
5,C=CC(=O)N1CCC(N2CC(C#Cc3c(-c4ccc(Oc5cccc(C)n5)c5c4OCO5)c4c(N)ncnc4n3C)C2)CC1 [III-90],10 to 1000
6,C=CC(=O)N[C@H]1CC[C@H](C#Cc2c(-c3ccc(Oc4cccc(C)n4)c(OC)c3)c3c(N)ncnc3n2C)CC1 [III-4],10 to 1000
7,CC#CC(=O)N1CCC(C#Cc2c(-c3ccc(Oc4ccccc4)cc3)c3c(N)ncnc3n2C(C)C)CC1 [Example I-18],10 to 1000
8,C=CC(=O)N1CCC(N2CC(C#Cc3c(-c4ccc(Oc5nnc(C)o5)c(OC)c4)c4c(N)ncnc4n3C)C2)CC1 [III-89],10 to 1000
9,C=CC(=O)N1CCC(N2CC(C#Cc3c(-c4ccc(Oc5cccc(C)n5)c(OC)c4)c4c(N)ncnc4n3C3CCOC3)C2)CC1 (stereo not drawn) [III-91],10 to 1000
10,C=CC(=O)N1CCC(C#Cc2c(-c3ccc(C(C#N)c4ccccc4)cc3)c3c(N)ncnc3n2C(C)C)CC1 (stereo not drawn) [Example I-30],10 to 1000
11,CC(Cl)C(=O)N1CCC(C#Cc2c(-c3ccc(Oc4ccccc4)cc3)c3c(N)ncnc3n2C(C)C)CC1 (stereo not drawn) [Example I-39],10 to 1000
12,Nc1ncnc2c1c(-c1ccc(Oc3ccccc3)cc1)c(C#CC1CCN(C(=O)/C=C/CN3CCOCC3)CC1)n2[C@H]1CCOC1 [III-36],10 to 1000
13,C=CC(=O)N1CC(C#Cc2c(-c3ccc(Oc4ccccc4)cc3)c3c(N)ncnc3n2C(C)C)C1 [Example I-3],≤ 10
14,C=CC(=O)N1CCC(C#Cc2c(-c3ccc(OCC4CCCC4)cc3)c3c(N)ncnc3n2C(C)C)CC1 [Example I-16],10 to 1000
15,C=CC(=O)N1CCC(N2CC(C#Cc3c(-c4ccc(Oc5ccccc5)c(C#N)c4)c4c(N)ncnc4n3C)C2)CC1 [III-74],> 10000
16,C=CC(=O)N[C@H](C)C(=O)N1CCC(C#Cc2c(-c3ccc(Oc4ccccc4)cc3)c3c(N)ncnc3n2C2CCOC2)CC1 (stereo partly drawn) [III-76],≤ 10
17,"CC(C)n1c(C#CC2CNC2)c(-c2ccc(Oc3ccccc3)cc2)c2c(N)ncnc21 [II-152, 6-(azetidin-3-ylethynyl)-7-isopropyl-5-(4-phenoxyphenyl)-7H-pyrrolo[2,3-d]pyrimidin-4-amine]",≤ 10
18,C=CC(=O)N1CCC(C#Cc2c(-c3ccc(Oc4ccccc4)cc3)c3c(N)ncnc3n2CCCN(C)C)C1 (stereo not drawn) [III-15],10 to 1000
19,C=CC(=O)N1CCC(N2CC(N)(C#Cc3c(-c4ccc(Oc5cccc(C)n5)c(OC)c4)c4c(N)ncnc4n3C)C2)CC1 [III-93],1000 to 10000

row,Compound,IC50 [nM]
1,"C=CC(=O)N1CCC(C#Cc2c(-c3ccc(Oc4ccccc4)cc3)c3c(N)ncnc3n2[C@@H](C)CO)CC1 (single isomer, unassigned) [Example I-26]",10 to 1000
2,CC(C)n1c(C#CC2CCN(C#N)CC2)c(-c2ccc(Oc3ccccc3)cc2)c2c(N)ncnc21 [Example I-2],10 to 1000
3,C=CC(=O)N1CCC(C#Cc2c(-c3ccc(Oc4ccccc4)cc3)c3c(N)ncnc3n2C(C)CO)C1 (stereo not drawn) [III-33],10 to 1000
4,C=CC(=O)N1CCC(C#Cc2c(-c3ccc(Oc4ccccc4C#N)cc3)c3c(N)ncnc3n2C(C)C)CC1 [Example I-31],10 to 1000
5,"CCC(=O)N1CCC(C#Cc2c(-c3ccc(Oc4ccccc4)cc3)c3c(N)ncnc3n2C2CCOC2)CC1 (stereo not drawn) [II-156, 1-(4-((4-amino-5-(4-phenoxyphenyl)-7-(tetrahydrofuran-3-yl)-7H-pyrrolo[2,3-d]pyrimidin-6-yl)ethynyl)piperidin-1-yl)propan-1-one]",10 to 1000
6,C=CC(=O)N1CCC(N2CC(C#Cc3c(-c4ccc(Oc5cccc(C)n5)cc4)c4c(N)ncnc4n3C)C2)CC1 [III-75],10 to 1000
7,C=CS(=O)(=O)N1CCC(C#Cc2c(-c3ccc(Oc4ccccc4)cc3)c3c(N)ncnc3n2C(C)C)CC1 [Example I-37],≤ 10
8,CC(C)n1c(C#CC2CCC(NC(=O)CCl)CC2)c(-c2ccc(Oc3ccccc3)cc2)c2c(N)ncnc21 (stereo not drawn) [Example I-38],10 to 1000
9,C=CC(=O)N1CCC(C#Cc2c(-c3ccc(Oc4ccccn4)cc3)c3c(N)ncnc3n2C(C)C)CC1 [Example I-12],10 to 1000
10,C=CC(=O)N1C[C@@H]2[C@@H](C#Cc3c(-c4ccc(Oc5ccccc5)c5c4OCO5)c4c(N)ncnc4n3C)[C@@H]2C1 [III-88],≤ 10
11,C=CS(=O)(=O)NC1CCC(C#Cc2c(-c3ccc(Oc4ccccc4)cc3)c3c(N)ncnc3n2C(C)C)CC1 (stereo not drawn) [Example I-43],≤ 10
12,"CC(C(N)=O)N1CCC(C#Cc2c(-c3ccc(Oc4ccccc4)cc3)c3c(N)ncnc3n2C(C)C)CC1 (stereo not drawn) [II-150, 2-(4-((4-amino-7-isopropyl-5-(4-phenoxyphenyl)-7H-pyrrolo[2,3-d]pyrimidin-6-yl)ethynyl)piperidin-1-yl)propanamide]",10 to 1000
13,C=CC(=O)N1CCC(C#Cc2c(-c3ccc(Oc4cccc(Cl)c4)cc3)c3c(N)ncnc3n2C(C)C)CC1 [Example I-36],10 to 1000
14,"CCC(=O)N1CC(N2CCC(C#Cc3c(-c4ccc(Oc5ccccc5)cc4)c4c(N)ncnc4n3C(C)C)CC2)C1 [II-158, 1-(3-(4-((4-amino-7-isopropyl-5-(4-phenoxyphenyl)-7H-pyrrolo[2,3-d]pyrimidin-6-yl)ethynyl)piperidin-1-yl)azetidin-1-yl)propan-1-one]",10 to 1000
15,C=CC(=O)N1CCC(N2CC(C#Cc3c(-c4ccc(Oc5cccc(C)n5)c(OC)c4)c4c(N)ncnc4n3C3CCOC3)C2)CC1 (stereo not drawn) [II-125],10 to 1000
16,C=CC(=O)N1CCC(N2CC(C#Cc3c(-c4ccc(Oc5cccc(C)n5)c(OC)c4)c4c(N)ncnc4n3CC)C2)CC1 [II-121],10 to 1000
17,C=CS(=O)(=O)N1CC(C#Cc2c(-c3ccc(Oc4ccccc4)cc3)c3c(N)ncnc3n2C(C)C)C1 [Example I-17],≤ 10
18,C=CC(=O)NCC#Cc1c(-c2ccc(Oc3ncccn3)cc2)c2c(N)ncnc2n1C [III-95],1000 to 10000
19,CC(CO)n1c(C#CC2CCN(C(=O)/C=C/CN(C)C)CC2)c(-c2ccc(Oc3ccccc3)cc2)c2c(N)ncnc21 (stereo not drawn) [III-31],10 to 1000

# Results, then the compound that gave them:
row,IC50 [nM],Compound
1,10 to 1000,Cn1c(C#CC2CN(C(=O)/C=C/CN3CCOCC3)C2)c(-c2ccc(Oc3ccccc3)cc2)c2c(N)ncnc21 [III-61]
2,10 to 1000,C=CC(=O)N1CCC(N2CC(C#Cc3c(-c4ccc(Oc5ccccc5)cc4)c4c(N)ncnc4n3C)C2)C(C)C1 (stereo not drawn) [III-49]
3,10 to 1000,C=CC(=O)N1CCC(O)(C#Cc2c(-c3ccc(Oc4ccccc4)c(F)c3)c3c(N)ncnc3n2C)CC1 [III-62]
4,10 to 1000,C=CC(=O)N1CCC(N2CC(C#Cc3c(-c4ccc(Oc5ccccc5)cc4)c4c(N)ncnc4n3C)C2)C[C@H]1CO (stereo partly drawn) [III-64]
5,10 to 1000,C=C(C)C(=O)N1CCC(O)(C#Cc2c(-c3ccc(Oc4ccccc4)cc3)c3c(N)ncnc3n2C)CC1 [III-35]
6,10 to 1000,C=CC(=O)N1CCC(N2CC(C#Cc3c(-c4ccc(Oc5ccccc5)cc4)c4c(N)ncnc4n3C)C2)C[C@H]1C (stereo partly drawn) [III-46]
7,10 to 1000,CC(CO)n1c(C#CC2(O)CCN(C(=O)/C=C/CN(C)C)CC2)c(-c2ccc(Oc3ccccc3)cc2)c2c(N)ncnc21 (stereo not drawn) [III-27]
8,10 to 1000,C=CC(=O)N1CCC(N2CC(C#Cc3c(-c4ccc(Oc5ccccc5)cc4)c4c(N)ncnc4n3C)C2)C[C@@H]1C (stereo partly drawn) [III-47]
9,10 to 1000,C=CC(=O)N(C)CC(=O)N1CCC(C#Cc2c(-c3ccc(Oc4ccccc4)cc3)c3c(N)ncnc3n2C)CC1 [III-43]
10,10 to 1000,"Cn1c(C#CC2CCNCC2)c(-c2ccc(Oc3ccccc3)cc2)c2c(N)ncnc21 [II-159, 7-methyl-5-(4-phenoxyphenyl)-6-(piperidin-4-ylethynyl)-7H-pyrrolo[2,3-d]pyrimidin-4-amine]"
11,10 to 1000,C=CC(=O)N1CCC(N2CC(C#Cc3c(-c4ccc(Oc5ccccc5)cc4)c4c(N)ncnc4n3C)C2)C[C@@H]1CO (stereo partly drawn) [III-67]
12,10 to 1000,C=CC(=O)N1CC[C@H](N2CC(C#Cc3c(-c4ccc(Oc5ccccc5)cc4)c4c(N)ncnc4n3C)C2)[C@@H](C)C1 [III-69]
13,10 to 1000,CN(C)C/C=C/C(=O)N1CCC(O)(C#Cc2c(-c3ccc(Oc4ccccc4)cc3)c3c(N)ncnc3n2C)CC1 [III-16]
14,10 to 1000,Cn1c(C#CC2(O)CCN(C(=O)/C=C/CN3CCC3)CC2)c(-c2ccc(Oc3ccccc3)cc2)c2c(N)ncnc21 [III-50]
15,10 to 1000,C=CC(=O)N1CCC(O)(C#Cc2c(-c3ccc(Oc4ccccc4)cc3)c3c(N)ncnc3n2C)C[C@H]1C (stereo partly drawn) [III-48]
16,1000 to 10000,C=CC(=O)N1CCC(C#Cc2c(-c3ccc(Oc4ccccc4)cc3)c3c(N)ncnc3n2C(C)C(=O)O)CC1 (stereo not drawn) [Example I-34]
17,10 to 1000,C=CC(=O)N1CCCC(N2CC(C#Cc3c(-c4ccc(Oc5ccccc5)cc4)c4c(N)ncnc4n3C)C2)CC1 (stereo not drawn) [III-56]
18,≤ 10,C=CC(=O)N1CCC(O)(C#Cc2c(-c3ccc(Oc4ccccc4)cc3)c3c(N)ncnc3n2C)C1 (stereo not drawn) [III-13]
19,10 to 1000,C=CC(=O)N1CCC(N2CCC(C#Cc3c(-c4ccc(Oc5ccccc5)cc4)c4c(N)ncnc4n3C)C2)CC1 (stereo not drawn) [III-73]
